The test has as its system Plasmodium berghei. The experiment in a line: Luciferase/luciferin-expressing antifolate-resistant parasites were used to infect a culture of HepG2 cells that were pre-incubated with compounds. Infected hepatocytes emit light due to the luciferase reaction. Assay results are presented as the percent inhibition of light emission compared to control. […]. The conditions noted are these: sporozoite; for IC50: read-out: LUCIFERASE INFECTION ASSAY - IC50; for IC90: read-out: LUCIFERASE INFECTION ASSAY - IC90. The format is functional.

For orientation: IC50 means the midpoint of a concentration-inhibition curve. For orientation: IC90 means the concentration at which the effect reaches the 90% level.

Structures are written as SMILES.

In the case of `O=[N+]([O-])c1ccc(NC2CCN(Cc3ccccc3)CC2)c2ccncc12`, the IC50 came to 9.37 µM and the IC90 is over 10 µM.

In the case of `CCNC(=O)COc1ccc(/C=C2\COc3ccccc3C2=O)cc1OC`, the IC50 was over 10 µM and the IC90 is over 10 µM.

For the molecule `CCOc1ccccc1NC(=O)c1cc(CC(C)C)oc1C`, the IC50 was over 10.9 µM and the IC90 is over 10.9 µM.

As for `Cc1c(C(=O)NC2CCN(Cc3ccccc3)C2)oc2c(Cl)cccc12` (centres undefined), the 50% inhibitory concentration (IC50) was over 10 µM and the IC90 was over 10 µM.

As for `Cc1ccc(SCCNS(=O)(=O)c2ccc(F)cc2)cc1`, the IC50 is over 10.1 µM and the IC90 is over 10.1 µM.

Turning to `O=C1c2cccc3c([N+](=O)[O-])ccc(c23)C(=O)N1Cc1cccnc1`, the IC50 is over 9.9 µM and the IC90 is over 9.9 µM.

As for `Clc1ccc(SCc2cc(N3CCOCC3)nc(-c3ccccn3)n2)cc1`, the IC50 was 4.81 µM and the IC90 came out at 4.86 µM.

On to `CCOC(=O)c1c(NC(=O)C[n+]2ccc(Cc3ccccc3)cc2)sc(C)c1C`, for which the IC50 was found to be 3.79 µM and the IC90 was found to be 8.6 µM.

As to `Cc1sc2ncnc(Sc3nnc(C(F)(F)F)n3C)c2c1C`, the IC50 is over 10 µM and the IC90 was over 10 µM.

Consider `C/C(=N\Nc1nc2ccccc2[nH]1)c1ccc2c(c1)OCO2`, for which the IC50 was determined as 4.04 µM and the IC90 came out at 4.99 µM.

Turning to `FC(F)(F)c1ccc(C2c3ccsc3CCN2C(=S)Nc2ccc(Cl)cc2Cl)cc1` (centres undefined), the IC50 was 4.24 µM and the IC90 is over 6.77 µM.

Regarding `O=c1c2ccccc2nc2c3ccccc3c(NCCCN3CCOCC3)nn12`, the IC50 was determined as 9.05 µM and the IC90 is over 10 µM.

As for `CC(=O)NC(C)c1ccc(C2=NNC(=Nc3cccc(Cl)c3C)SC2)cc1` (centres undefined), the IC50 is over 10 µM and the IC90 is over 10 µM.

Regarding `N#Cc1c(Cl)c2ccccc2[nH]c1=O`, the IC50 was found to be 14.9 µM and the IC90 is over 16.1 µM.

`Cc1nn2c(=O)c(Cc3ccccc3Cl)c(C)[nH]c2c1-c1ccccc1`: the IC50 worked out at 2.68 µM and the IC90 came out at 2.97 µM.

With `COc1ccc(OCCN(C)C(=O)c2ccc(-n3cccn3)cc2)cc1`, the IC50 was over 10 µM and the IC90 was over 10 µM.

Consider `N#C/C(=N\Nc1ccc(F)c(Cl)c1)C(=O)c1ccc(Cl)cc1`, for which the IC50 was 1.07 µM and the IC90 came to 1.26 µM.

Turning to `CCCCCC1C(O)CC(c2ccccc2)N(C)C1c1ccccc1` (centres undefined), the IC50 was over 9.78 µM and the IC90 is over 9.78 µM.

Take `O=C(Nc1ccc(Cl)cc1)Nc1cc(Cl)sc1Cl`: the IC50 is 3.09 µM and the IC90 is 3.79 µM.

As to `O=C(Nc1ccc(F)cc1)OCCSc1ccc([N+](=O)[O-])c2nonc12`, the IC50 is over 8.72 µM and the IC90 is over 8.72 µM.

As to `O=C(NCC#Cc1ccccc1)c1cccc2cccnc12`, the IC50 was over 10 µM and the IC90 was over 10 µM.

Take `CCC(C)(C)C1CCC(NC(=O)N(C)CC(=O)Nc2c(C)cccc2C)CC1` (centres undefined): the IC50 is over 10 µM and the IC90 is over 10 µM.

As for `CCOC(=O)c1cc(C#N)c(SCC(=O)Nc2ccccc2CC)nc1C`, the IC50 is over 10 µM and the IC90 is over 10 µM.

In the case of `Cc1ccc(-c2csc(NCSc3cccc4cccnc34)n2)cc1`, the 50% inhibitory concentration (IC50) is over 10 µM and the IC90 was over 10 µM.

For the molecule `FC(F)(F)c1ccc(Nc2ccc3c(c2)CCC3)nc1`, the IC50 is over 10 µM and the IC90 was over 10 µM.

Turning to `CCOc1ccccc1NC(=O)CSc1nnc2cc(C)c3ccccc3n12`, the IC50 is over 10 µM and the IC90 is over 10 µM.

Take `N#Cc1ccc(CN2CCN(c3ccc(-c4nc5ccccc5[nH]4)cn3)CC2)cc1`: the IC50 is over 10 µM and the concentration for an effect of 90% (IC90) was over 10 µM.

Regarding `O=C1CN(C(=O)COc2ccc(F)cc2Br)CCN1`, the IC50 is over 10 µM and the IC90 was over 10 µM.

For the molecule `CCCCNC(=O)Nc1ccn(C)n1`, the IC50 was over 16.8 µM and the IC90 was over 16.8 µM.

`FC(F)(F)c1ccc(NCCNc2ccc(C(F)(F)F)cn2)nc1`: the IC50 stood at 1.24 µM and the IC90 was 2.55 µM.

For the molecule `Cc1nn2c(=O)cc(C(C)C)[nH]c2c1-c1ccc(F)cc1`, the IC50 is over 11.6 µM and the IC90 is over 11.6 µM.

Regarding `Clc1ccc(CNc2ncnc3sccc23)cc1`, the IC50 was determined as 3.31 µM and the IC90 was over 10 µM.

For `O=C(CNc1cc(C(F)(F)F)cc(C(F)(F)F)c1)NC(=O)NC1CCCC1`, the IC50 worked out at 5.94 µM and the IC90 was over 10 µM.

As for `Fc1ccc(-c2nc3ccc(Cl)cc3[nH]2)cc1`, the IC50 is over 13.4 µM and the IC90 is over 13.4 µM.

As to `COc1ccc(C(c2ccc(N(C)C)cc2)c2ccc(N(C)C)cc2)c(C)c1C`, the IC50 was over 8.49 µM and the IC90 is over 8.49 µM.

Turning to `CC(=O)N[C@H]1[C@@H](OC(C)=O)O[C@H](COC(c2ccccc2)(c2ccccc2)c2ccccc2)[C@@H](OC(C)=O)[C@@H]1OC(C)=O`, the concentration for half-maximal inhibition (IC50) is over 5.6 µM and the IC90 was over 5.6 µM.

For `Cc1ccc(C2Nc3ccccc3C(=O)N2C(C)c2ccccc2)o1` (centres undefined), the IC50 was over 10 µM and the IC90 was over 10 µM.

Turning to `CC(C)(C)c1cc(C(c2ccccn2)N2CCCC2)cc(C(C)(C)C)c1O` (centres undefined), the IC50 is over 10 µM and the IC90 is over 10 µM.

`Cc1nc2ccccn2c1C(=O)N/N=C/c1ccccc1O`: the IC50 was determined as 10.1 µM and the IC90 is over 11.2 µM.

With `CNS(=O)(=O)c1ccc(NC(=O)c2ccc3[nH]c(C)c(C)c3c2)cc1`, the IC50 was over 10 µM and the IC90 was over 10 µM.

Regarding `Cc1cc(C)c(S(=O)(=O)N2CCC(C(=O)Nc3nnc(C)o3)CC2)c(C)c1`, the IC50 is over 10 µM and the IC90 is over 10 µM.

Take `CCOC(=O)c1cnn(-c2c(Cl)cc(Cl)cc2Cl)c1-c1ccccc1`: the IC50 is over 8.34 µM and the IC90 is over 8.34 µM.

As for `O=[N+]([O-])c1ccc(Nc2cccc(OC3CCCC3)c2)nc1`, the IC50 was over 10 µM and the IC90 is over 10 µM.

`CC(C)CN1CCOC(CSc2nc3sc4c(c3c(=O)n2C)CCC4)C1` (centres undefined): the IC50 was over 10 µM and the IC90 is over 10 µM.

With `O=C1CCCN1c1cccc(Oc2nc(-c3cccnc3)nc3ccccc23)c1`, the 50% inhibitory concentration (IC50) was over 10 µM and the IC90 is over 10 µM.

On to `Cc1ccc(-n2nnnc2-c2cnc3ccccc3c2-c2ccccc2)cc1`, for which the IC50 was over 9.08 µM and the IC90 was over 9.08 µM.

For the molecule `CCN(CC)C(=S)SCC(=O)c1cc(C)n(-c2ccccc2)c1C`, the IC50 amounted to 4.85 µM and the IC90 was over 10 µM.

`OCCNc1nc(Sc2ccc(Cl)cc2)nc2ccccc12`: the IC50 was over 10 µM and the IC90 was over 10 µM.

As to `COc1ccc(C)cc1CCNC(=O)c1cc(C2CC2)nn1-c1ccccc1`, the IC50 is over 10 µM and the IC90 was over 10 µM.

For the molecule `O=C(Nc1ccc(-c2nccs2)cc1)c1cc(Br)c[nH]1`, the IC50 turned out to be 7.5 µM and the IC90 is over 10 µM.

For `CC(C)c1ccc(-c2noc(CCC(=O)Nc3ccn(C)n3)n2)cc1`, the IC50 is over 10 µM and the IC90 was over 10 µM.

As to `CC(Nc1ccc2c(c1)OC(F)(F)O2)C(=O)Nc1ccc(Cl)cn1` (centres undefined), the IC50 is over 10 µM and the IC90 is over 10 µM.

As to `CCc1[nH]c(=O)c(C#N)c(-c2ccccc2)c1C(=O)OC`, the IC50 is over 11.7 µM and the IC90 is over 11.7 µM.

For the molecule `Cc1nc2ccccc2c(=O)n1-c1ccc(C(=O)NCCCc2ccccc2)cc1`, the IC50 was over 10 µM and the IC90 is over 10 µM.

For `O=S(=O)(Nc1cccc(-c2ncon2)c1)c1cc(C(F)(F)F)cc(C(F)(F)F)c1`, the half-inhibitory concentration (IC50) amounted to 0.531 µM and the IC90 is over 7.55 µM.

For the molecule `Cc1nc(NCCSc2nccn2C)c2c(-c3ccccc3)csc2n1`, the IC50 is over 10 µM and the IC90 was over 10 µM.

Consider `Cc1cc(-c2ccc(Cl)cc2)nc2c1c(C)nn2CCO`, for which the IC50 turned out to be 4.08 µM and the IC90 was over 10 µM.

For `Cc1sc2ncnc(NC(C)C(=O)Nc3ccc4c(c3)OCCCO4)c2c1C` (centres undefined), the IC50 turned out to be 8.08 µM and the IC90 is over 10 µM.

Take `O=C(Nc1ncccc1O)c1ccc(-c2ccc3c(c2)OCCO3)s1`: the IC50 is 7.42 µM and the IC90 was over 10 µM.

In the case of `CC1CCCCC1NC(=O)c1c[nH]c2ccc(Br)cc12` (centres undefined), the IC50 is over 10 µM and the IC90 is over 10 µM.

As to `CSc1nc2ccc(NC(=O)c3cn4ccccc4n3)cc2s1`, the IC50 came out at 3.18 µM and the IC90 was over 10 µM.

As to `COc1ccc(CNc2ncnc3ccsc23)cc1`, the IC50 stood at 8.88 µM and the IC90 was over 10 µM.

`COc1ccc(OCCN2CCN(C(C)C(=O)Nc3sccc3C(N)=O)CC2)cc1` (centres undefined): the IC50 is over 10 µM and the IC90 was over 10 µM.

In the case of `Cc1ccc(NC(=O)CN2CCN(Cc3c(O)ccc4ccncc34)CC2)cc1`, the half-inhibitory concentration (IC50) was over 10 µM and the IC90 was over 10 µM.

Regarding `Clc1ccc(-c2nnc(-c3cc(Cl)cc(Cl)c3)o2)cc1`, the IC50 is over 10.1 µM and the IC90 was over 10.1 µM.

As for `COc1ccc(/C=C2\CCCc3c2nc2ncnn2c3-c2ccc(OC)cc2)cc1`, the IC50 was over 10 µM and the IC90 was over 10 µM.

`N#C/C(=N\Nc1ccc(F)cc1)C(=O)c1ccc(Cl)cc1`: the IC50 was found to be 9.59 µM and the IC90 was over 10.9 µM.

In the case of `O=C(NC(c1ccccc1O)C(NC(=O)c1ccccc1)c1ccccc1O)c1ccccc1` (centres undefined), the IC50 is over 7.29 µM and the 90% effect concentration (IC90) was over 7.29 µM.

Turning to `Cc1ccc(C2NC(=S)NC3=C2C(=O)c2ccccc23)cc1` (centres undefined), the IC50 is over 10.8 µM and the IC90 is over 10.8 µM.

`CC1CCC2(CC1)NC(=O)N(CC(=O)NCC(F)(F)F)C2=O` (centres undefined): the IC50 was over 10 µM and the IC90 is over 10 µM.

As to `O=[N+]([O-])c1ccc(SCCOS(=O)(=O)c2cccc(C(F)(F)F)c2)c2nonc12`, the IC50 was over 7.34 µM and the IC90 was over 7.34 µM.

On to `Cc1sc2nc(-c3cccnc3)nc(NCC(c3ccco3)N(C)C)c2c1C` (centres undefined), for which the IC50 was over 10 µM and the IC90 is over 10 µM.
